Source: patent publication US9000159B2 (Glenmark Pharmaceuticals, S.A., priority 2009, dated 2015)

Target: T1, Human TRPA1 (Homo sapiens, UniProt O75762)
T1 construct: expressed in transfected cells; host or cells: CHO cells
Assay: 45Calcium uptake assay: inhibition of AITC induced cellular uptake of radioactive calcium
Format: cell-based
Conditions: AITC (30 μM) induced 45Ca uptake, Human TRPA1 expressing CHO cells; for inhibition at 1 µM: 1.0 μM test compound, read-out: Percentage inhibition at 1.0 μM; for inhibition at 10 µM: 10.0 μM test compound, read-out: Percentage inhibition at 10.0 μM; for IC50: read-out: Human IC50 value (range)
Text: The illustrative examples of the present invention are screened for TRPA1 activity according to a modified procedure described in (a) Tóth, A. et al., Life Sciences, 2003, 73, 487-498. (b) McNamara C, R. et al., Proc. Natl. Acad. Sci. U.S.A., 2007, 104, 13525-13530. The screening of the compounds can be carried out by other methods and procedures known to persons skilled in the art.
Screening for TRPA1 Antagonist Using the ^45Calcium Uptake Assay
The inhibition of TRPA1 receptor activation was measured as inhibition of allyl isothiocyanate (AITC) induced cellular uptake of radioactive calcium. Test compounds were dissolved in DMSO to prepare 10 mM stock solution and then diluted using plain medium with 0.1% BSA and 1.8 mM CaCl2 to get desired concentration. Final concentration of DMSO in the reaction was 0.5% (v/v). Human TRPA1 expressing CHO cells were grown in F-12 DMEM medium with 10% FBS, 1% penicillin-streptomycin solution, 400 μg/ml of G-418. Cells were seeded 24 h prior to the assay in 96 well plates so as to get ˜50,000 cells per well on the day of experiment. Cells were treated with test compounds for 10 min followed by addition of AITC at a final concentration of 30 μM and 5 μCi/ml ^45Ca^+2 for 3 min. Cells were washed and lysed using buffer containing 1% Triton X-100, 0.1% deoxycholate and 0.1% SDS. Radioactivity in the lysate was measured in Packard Top count after addition of liquid scintillant. Concentration response curves were plotted as a % of maximal response obtained in the absence of test antagonist. IC50 value was calculated from concentration response curve by nonlinear regression analysis using GraphPad PRISM software.

T1 sequence (O75762 whole entry): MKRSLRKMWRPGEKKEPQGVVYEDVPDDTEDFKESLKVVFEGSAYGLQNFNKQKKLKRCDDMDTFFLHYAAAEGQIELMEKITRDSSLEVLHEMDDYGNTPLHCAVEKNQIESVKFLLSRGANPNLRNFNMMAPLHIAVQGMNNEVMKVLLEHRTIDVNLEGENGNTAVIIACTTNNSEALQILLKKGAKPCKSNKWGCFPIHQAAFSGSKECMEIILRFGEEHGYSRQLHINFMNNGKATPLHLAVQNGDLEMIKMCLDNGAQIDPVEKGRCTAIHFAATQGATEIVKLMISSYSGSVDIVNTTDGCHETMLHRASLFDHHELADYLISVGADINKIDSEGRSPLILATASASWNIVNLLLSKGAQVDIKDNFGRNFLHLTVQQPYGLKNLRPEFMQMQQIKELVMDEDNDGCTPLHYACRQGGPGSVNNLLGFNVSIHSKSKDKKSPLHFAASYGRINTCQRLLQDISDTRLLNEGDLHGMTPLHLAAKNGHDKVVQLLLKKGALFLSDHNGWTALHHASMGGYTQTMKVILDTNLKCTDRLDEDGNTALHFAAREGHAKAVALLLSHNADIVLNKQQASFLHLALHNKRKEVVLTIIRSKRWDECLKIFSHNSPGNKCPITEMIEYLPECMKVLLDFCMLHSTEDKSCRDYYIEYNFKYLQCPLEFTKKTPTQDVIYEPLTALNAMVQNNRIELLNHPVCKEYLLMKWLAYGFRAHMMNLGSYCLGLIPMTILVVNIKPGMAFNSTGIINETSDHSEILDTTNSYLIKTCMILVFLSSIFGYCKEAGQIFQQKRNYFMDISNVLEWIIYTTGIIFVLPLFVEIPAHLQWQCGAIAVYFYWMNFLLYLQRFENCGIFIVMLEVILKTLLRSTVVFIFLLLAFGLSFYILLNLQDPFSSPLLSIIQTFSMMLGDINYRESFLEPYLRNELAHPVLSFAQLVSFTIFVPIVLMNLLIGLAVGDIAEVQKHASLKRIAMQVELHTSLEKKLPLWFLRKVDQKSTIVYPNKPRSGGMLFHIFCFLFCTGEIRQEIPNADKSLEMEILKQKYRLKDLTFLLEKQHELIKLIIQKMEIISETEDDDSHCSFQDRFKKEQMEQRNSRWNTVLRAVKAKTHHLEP

| inhibition at 1 µM | inhibition at 10 µM | IC50 | Structure (SMILES) |
| --- | --- | --- | --- |
| 23.1% | 21.4% | – | Cn1c(=O)c2c(ccn2CC(=O)Nc2nc(-c3ccc(F)cc3F)cs2)n(C)c1=O [Example 1, N-[4-(2,4-Difluorophenyl)-1,3-thiazol-2-yl]-2-(1,3-dimethyl-2,4-dioxo-1,2,3,4-tetrahydro-5H-pyrrolo[3,2-d]pyrimidin-5-yl)acetamide] |
| 35.4% | 79.5% | – | Cn1c(=O)c2c(ccn2CC(=O)Nc2nc(-c3ccc(F)c(C(F)(F)F)c3)cs2)n(C)c1=O [Example 2, 2-(1,3-Dimethyl-2,4-dioxo-1,2,3,4-tetrahydro-5H-pyrrolo[3,2-d]pyrimidin-5-yl)-N-{4-[4-fluoro-3-(trifluoromethyl)phenyl]-1,3-thiazol-2-yl}acetamide] |
| 94.4% | 98.8% | < 50 nM | Cn1c(=O)c2c(ccn2CC(=O)Nc2nc(-c3ccc(C(F)(F)F)c(F)c3)cs2)n(C)c1=O [Example 3, 2-(1,3-Dimethyl-2,4-dioxo-1,2,3,4-tetrahydro-5H-pyrrolo[3,2-d]pyrimidin-5-yl)-N-{4-[3-fluoro-4-(trifluoromethyl)phenyl]-1,3-thiazol-2-yl}acetamide] |
| 34.4% | 89.8% | – | Cn1c(=O)c2c(ccn2CC(=O)Nc2nc(-c3ccc(Cl)c(C(F)(F)F)c3)cs2)n(C)c1=O [Example 4, 2-(1,3-Dimethyl-2,4-dioxo-1,2,3,4-tetrahydro-5H-pyrrolo[3,2-d]pyrimidin-5-yl)-N-{4-[4-chloro-3-(trifluoromethyl)phenyl]-1,3-thiazol-2-yl}acetamide] |
| 55.3% | 82.3% | – | Cn1c(=O)c2c(ccn2CC(=O)Nc2nc(-c3ccc(Cl)c(Cl)c3Cl)cs2)n(C)c1=O [Example 5, 2-(1,3-Dimethyl-2,4-dioxo-1,2,3,4-tetrahydro-5H-pyrrolo[3,2-d]pyrimidin-5-yl)-N-[4-(2,3,4-trichlorophenyl)-1,3-thiazol-2-yl]acetamide] |
| 42.4% | 52.8% | – | CC(C)COc1c(F)cc(-c2csc(NC(=O)Cn3ccc4c3c(=O)n(C)c(=O)n4C)n2)cc1F [Example 6, 2-(1,3-Dimethyl-2,4-dioxo-1,2,3,4-tetrahydro-5H-pyrrolo[3,2-d]pyrimidin-5-yl)-N-{4-[4-(2-methylpropoxy)-3,5-difluorophenyl]-1,3-thiazol-2-yl}acetamide] |
| 91.9% | 100% | < 50 nM | Cn1c(=O)c2c(ccn2CC(=O)Nc2nc(-c3cc(F)c(OCC(C)(C)C)c(F)c3)cs2)n(C)c1=O [Example 8, N-{[4-(2,2-Dimethylpropoxy)-3,5-difluorophenyl]-1,3-thiazol-2-yl}-2-(1,3-dimethyl-2,4-dioxo-1,2,3,4-tetrahydro-5H-pyrrolo[3,2-d]pyrimidin-5-yl)acetamide] |
| 60.7% | 91.3% | – | Cn1c(=O)c2c(ccn2CC(=O)Nc2nc(-c3ccc(F)c(C(F)(F)F)c3F)cs2)n(C)c1=O [Example 9, 2-(1,3-Dimethyl-2,4-dioxo-1,2,3,4-tetrahydro-5H-pyrrolo[3,2-d]pyrimidin-5-yl)-N-{4-[2,4-difluorophenyl-3-trifluoromethyl]-1,3-thiazol-2-yl}acetamide] |
| 91% | 95.3% | 50 to 100 nM | Cn1c(=O)c2c(ccn2CC(=O)Nc2nc(-c3cc(F)c(OC(F)F)c(F)c3)cs2)n(C)c1=O [Example 10, N-{4-[4-(Difluoromethoxy)-3,5-difluorophenyl]-1,3-thiazol-2-yl}-2-(1,3-dimethyl-2,4-dioxo-1,2,3,4-tetrahydro-5H-pyrrolo[3,2-d]pyrimidin-5-yl)acetamide] |
| 96.3% | 98.1% | < 50 nM | Cn1c(=O)c2c(ccn2CC(=O)Nc2nc(-c3cc(F)c(OCC(F)(F)F)c(F)c3)cs2)n(C)c1=O [Example 11, N-{4-[3,5-Difluoro-4-(2,2,2-trifluoroethoxy)phenyl]-1,3-thiazol-2-yl}-2-(1,3-dimethyl-2,4-dioxo-1,2,3,4-tetrahydro-5H-pyrrolo[3,2-d]pyrimidin-5-yl)acetamide] |
| 97.4% | 96% | < 50 nM | Cn1c(=O)c2c(ccn2CC(=O)Nc2nc(-c3cc(F)c(OCCC(F)(F)F)c(F)c3)cs2)n(C)c1=O [Example 12, N-{4-[3,5-Difluoro-4-(3,3,3-trifluoropropoxy)phenyl]-1,3-thiazol-2-yl}-2-(1,3-dimethyl-2,4-dioxo-1,2,3,4-tetrahydro-5H-pyrrolo[3,2-d]pyrimidin-5-yl)acetamide] |
| 86.5% | 98.8% | 50 to 100 nM | Cn1c(=O)c2c(ccn2CC(=O)Nc2nc(-c3cc(Cl)c(OCC(C)(C)C)c(Cl)c3)cs2)n(C)c1=O [Example 13, N-{4-[3,5-Dichloro-4-(2,2-dimethylpropoxy)phenyl]-1,3-thiazol-2-yl}-2-(1,3-dimethyl-2,4-dioxo-1,2,3,4-tetrahydro-5H-pyrrolo[3,2-d]pyrimidin-5-yl)acetamide] |
| 92.5% | 92.5% | < 50 nM | Cn1c(=O)c2c(ccn2CC(=O)Nc2nc(-c3cc(Cl)c(OCCC(F)(F)F)c(Cl)c3)cs2)n(C)c1=O [Example 14, N-{4-[3,5-Dichloro-4-(3,3,3-trifluoropropoxy)phenyl]-1,3-thiazol-2-yl}-2-(1,3-dimethyl-2,4-dioxo-1,2,3,4-tetrahydro-5H-pyrrolo[3,2-d]pyrimidin-5-yl)acetamide] |
| 95% | 97.1% | < 50 nM | Cn1c(=O)c2c(ccn2CC(=O)Nc2nc(-c3cc(F)c(OCC(F)(F)F)c(Cl)c3)cs2)n(C)c1=O [Example 16, N-{4-[3-Chloro-5-fluoro-4-(2,2,2-trifluoroethoxy)phenyl]-1,3-thiazol-2-yl}-2-(1,3-dimethyl-2,4-dioxo-1,2,3,4-tetrahydro-5H-pyrrolo[3,2-d]pyrimidin-5-yl)acetamide] |
| 33.5% | 49.9% | – | Cn1c(=O)c2c(ccn2CC(=O)Nc2nc(-c3cc(F)c(OCC4CC4)c(F)c3)cs2)n(C)c1=O [Example 17, 2-(1,3-Dimethyl-2,4-dioxo-1,2,3,4-tetrahydro-5H-pyrrolo[3,2-d]pyrimidin-5-yl)-N-{4-[4-(cyclopropylmethoxy)-3,5-difluorophenyl]-1,3-thiazol-2-yl}acetamide] |
| 38.4% | 38.7% | – | Cn1c(=O)c2c(ccn2CC(=O)Nc2nc(-c3cc(F)c(OCC4CCC4)c(F)c3)cs2)n(C)c1=O [Example 18, 2-(1,3-Dimethyl-2,4-dioxo-1,2,3,4-tetrahydro-5H-pyrrolo[3,2-d]pyrimidin-5-yl)-N-{4-[4-(cyclobutylmethoxy)-3,5-difluorophenyl]-1,3-thiazol-2-yl}acetamide] |
| 72.1% | 76.9% | – | Cn1c(=O)c2c(ccn2CC(=O)Nc2nc(-c3cc(Cl)c(OCC4CCC4)c(Cl)c3)cs2)n(C)c1=O [Example 19, 2-(1,3-Dimethyl-2,4-dioxo-1,2,3,4-tetrahydro-5H-pyrrolo[3,2-d]pyrimidin-5-yl)-N-{4-[4-(cyclobutylmethoxy)-3,5-dichlorophenyl]-1,3-thiazol-2-yl}acetamide] |
| 22.6% | 67.7% | – | Cn1c(=O)c2c(ccn2CC(=O)Nc2nc(-c3cc(F)c(OCc4ccccc4C(F)(F)F)c(F)c3)cs2)n(C)c1=O [Example 20, 2-(1,3-Dimethyl-2,4-dioxo-1,2,3,4-tetrahydro-5H-pyrrolo[3,2-d]pyrimidin-5-yl)-N-{4-[3,5-difluoro-4-[2-(trifluoromethyl)benzyloxy]phenyl)-1,3-thiazol-2-yl}acetamide] |

| Structure (SMILES) | inhibition at 1 µM | inhibition at 10 µM | IC50 |
| --- | --- | --- | --- |
| CC(C)CCOc1c(F)cc(-c2csc(NC(=O)Cn3ccc4c3c(=O)n(C)c(=O)n4C)n2)cc1F [Example 7, N-{4-[3,5-Difluoro-4-(3-methylbutoxy)phenyl]-1,3-thiazol-2-yl}-2-(1,3-dimethyl-2,4-dioxo-1,2,3,4-tetrahydro-5H-pyrrolo[3,2-d]pyrimidin-5-yl)acetamide] | 35.5% | 37.3% | – |
| Cn1c(=O)c2c(ccn2CC(=O)Nc2nc(-c3cc(Cl)c(OCCC(F)(F)C(F)(F)F)c(Cl)c3)cs2)n(C)c1=O [Example 15, N-{4-[3,5-Dichloro-4-(3,3,4,4,4-pentafluorobutoxy)phenyl]-1,3-thiazol-2-yl}-2-(1,3-dimethyl-2,4-dioxo-1,2,3,4-tetrahydro-5H-pyrrolo[3,2-d]pyrimidin-5-yl)acetamide] | 76.5% | 92.5% | 50 to 100 nM |
